Converted amounts (≈) assume the structure as drawn. Non-standard residues stand in square brackets, D forms with d. Residues, ends and D or L forms follow the SMILES beside them. dDip = N[C@@H](C(=O)O)C(c1ccccc1)c1ccccc1; Dip = N[C@H](C(=O)O)C(c1ccccc1)c1ccccc1; 2Nal = N[C@@H](Cc1ccc2ccccc2c1)C(=O)O; d2Nal = N[C@H](Cc1ccc2ccccc2c1)C(=O)O; Dab = NCC[C@H](N)C(=O)O
Columns and labels:
[1] = tested on: Pseudomonas aeruginosa (ATCC 27883); conditions: ATCC 27883
[2] = in vitro; conditions: human, fresh human red blood cells (washed), pH 7.4
[3] = tested on: Methicillin-resistant Staphylococcus aureus MRSA (ATCC BAA-1556); conditions: ATCC BAA-1556
[4] = tested on: S. aureus ATCC 29213; conditions: ATCC 29213
[5] = tested on: Escherichia coli (ATCC 25922); conditions: ATCC 25922
[6] = tested on: human red blood cells; parameters: unit not given beside the values

SMILES	MIC P. aeruginosa ATCC 27883 [1]	HC50 at 0.5 h [2]	MIC MRSA ATCC BAA-1556 [3]	MIC S. aureus ATCC 29213 [4]	MIC E. coli ATCC 25922 [5]	HC50 [6]
N=C(N)NCCC[C@@H]1NC(=O)[C@@H](CCCNC(=N)N)NC(=O)[C@H](CCCNC(=N)N)NC(=O)[C@@H](CCCNC(=N)N)NC(=O)[C@@H](C(c2ccccc2)c2ccccc2)NC(=O)[C@@H](C(c2ccccc2)c2ccccc2)NC(=O)[C@@H](C(c2ccccc2)c2ccccc2)NC1=O [IFX-068, c[arg-Arg-arg-Arg-dip-dip-dip]] (cyclo([dR]R[dR]R[dDip][dDip][dDip]))	12.5 µg/mL (≈ 9.66 µM)	280 µg/mL				
N=C(N)NCCC[C@H]1NC(=O)[C@H](C(c2ccccc2)c2ccccc2)NC(=O)[C@H](C(c2ccccc2)c2ccccc2)NC(=O)[C@H](C(c2ccccc2)c2ccccc2)NC(=O)[C@@H](CCCNC(=N)N)NC(=O)[C@@H](CCCNC(=N)N)NC(=O)[C@@H](CCCNC(=N)N)NC1=O [IFX-073, c[arg-arg-arg-arg-Dip-Dip-Dip]] (cyclo([dR][dR][dR][dR][Dip][Dip][Dip]))	6.2 µg/mL (≈ 4.79 µM)	245 µg/mL				
N=C(N)NCCC[C@@H]1NC(=O)[C@H](CCCNC(=N)N)NC(=O)[C@H](CCCNC(=N)N)NC(=O)[C@@H](CCCNC(=N)N)NC(=O)[C@H](Cc2ccc3ccccc3c2)NC(=O)[C@H](Cc2ccc3ccccc3c2)NC(=O)[C@H](Cc2ccc3ccccc3c2)NC1=O [IFX-080, c[arg-Arg-Arg-Arg-NaI-NaI-NaI]] (cyclo([dR]RRR[2Nal][2Nal][2Nal]))	12.5 µg/mL (≈ 10.3 µM)	200 µg/mL				
N=C(N)NCCC[C@@H]1NC(=O)[C@H](C(c2ccccc2)c2ccccc2)NC(=O)[C@@H](C(c2ccccc2)c2ccccc2)NC(=O)[C@H](C(c2ccccc2)c2ccccc2)NC(=O)[C@@H](CCCNC(=N)N)NC(=O)[C@H](CCCNC(=N)N)NC(=O)[C@@H](CCCNC(=N)N)NC1=O [IFX-071, c[Arg-arg-Arg-arg-Dip-dip-Dip]] (cyclo(R[dR]R[dR][Dip][dDip][Dip]))	12.5 µg/mL (≈ 9.66 µM)	150 µg/mL				
N=C(N)NCCC[C@@H]1NC(=O)[C@H](CCCNC(=N)N)NC(=O)[C@H](CCCNC(=N)N)NC(=O)[C@H](Cc2ccc3ccccc3c2)NC(=O)[C@H](Cc2ccc3ccccc3c2)NC(=O)[C@H](Cc2ccc3ccccc3c2)NC(=O)[C@H](Cc2ccc3ccccc3c2)NC(=O)[C@H](CCCNC(=N)N)NC1=O [IFX-006, c[Arg-Arg-Arg-Arg-NaI-NaI-NaI-NaI]] (cyclo([2Nal][2Nal][2Nal][2Nal]RRRR))	50 µg/mL (≈ 35.4 µM)		6.2 µg/mL (≈ 4.39 µM)	3.1 µg/mL (≈ 2.19 µM)	25 µg/mL (≈ 17.7 µM)	120
N=C(N)NCCC[C@@H]1NC(=O)[C@H](CCCNC(=N)N)NC(=O)[C@H](CCCNC(=N)N)NC(=O)[C@H](Cc2ccc3ccccc3c2)NC(=O)[C@H](Cc2ccc3ccccc3c2)NC(=O)[C@H](CCCNC(=N)N)NC1=O [IFX-011, c[Arg-Arg-Arg-Arg-NaI-NaI]] (cyclo([2Nal][2Nal]RRRR))	50 µg/mL (≈ 49.1 µM)		6.2 µg/mL (≈ 6.08 µM)	6.2 µg/mL (≈ 6.08 µM)	50 µg/mL (≈ 49.1 µM)	295
N=C(N)NCCC[C@H](NC(=O)[C@H](CCCNC(=N)N)NC(=O)[C@H](CCCNC(=N)N)NC(=O)[C@@H](N)CCCNC(=N)N)C(=O)N[C@@H](Cc1c[nH]c2ccccc12)C(=O)N[C@@H](Cc1ccc2ccccc2c1)C(=O)N[C@@H](Cc1ccc2ccccc2c1)C(=O)O [IFX-029-1, NH2-R-R-R-R-Trp-NaI-NaI-OH] (H-RRRRW[2Nal][2Nal]-OH)	50 µg/mL (≈ 40.9 µM)		3.1 µg/mL (≈ 2.53 µM)	3.1 µg/mL (≈ 2.53 µM)	12.5 µg/mL (≈ 10.2 µM)	400
N=C(N)NCCC[C@H](NC(=O)[C@H](CCCNC(=N)N)NC(=O)[C@H](CCCNC(=N)N)NC(=O)[C@@H](N)CCCNC(=N)N)C(=O)N[C@@H](Cc1ccc2ccccc2c1)C(=O)N[C@@H](Cc1ccc2ccccc2c1)C(=O)N[C@@H](Cc1ccc2ccccc2c1)C(=O)O [IFX-009-1, NH2-Arg-Arg-Arg-Arg-NaI-NaI-NaI-OH] (H-RRRR[2Nal][2Nal][2Nal]-OH)	12.5 µg/mL (≈ 10.1 µM)		3.1 µg/mL (≈ 2.51 µM)	3.1 µg/mL (≈ 2.51 µM)	12.5 µg/mL (≈ 10.1 µM)	260
N=C(N)NCCC[C@H](NC(=O)[C@H](CCCNC(=N)N)NC(=O)[C@@H](N)CCCNC(=N)N)C(=O)N[C@H](C(=O)N[C@H](C(=O)N[C@H](C(=O)O)C(c1ccccc1)c1ccccc1)C(c1ccccc1)c1ccccc1)C(c1ccccc1)c1ccccc1 [IFX-002-1, NH2-Arg-Arg-Arg-Dip-Dip-Dip-OH] (H-RRR[Dip][Dip][Dip]-OH)	25 µg/mL (≈ 21.6 µM)		3.1 µg/mL (≈ 2.68 µM)	3.1 µg/mL (≈ 2.68 µM)	6.2 µg/mL (≈ 5.36 µM)	265
N=C(N)NCCC[C@@H]1NC(=O)[C@H](CCN)NC(=O)[C@@H](Cc2ccc3ccccc3c2)NC(=O)[C@@H](Cc2ccc3ccccc3c2)NC(=O)[C@H](Cc2c[nH]c3ccccc23)NC(=O)[C@H](CCN)NC(=O)[C@@H](CCCNC(=N)N)NC(=O)[C@H](CCCNC(=N)N)NC(=O)[C@@H](CCCNC(=N)N)NC1=O [IFX-057, c[Dab-Arg-arg-Arg-arg-Dab-Trp-naI-naI]] (cyclo([Dab]R[dR]R[dR][Dab]W[d2Nal][d2Nal]))	32 µg/mL (≈ 22.8 µM)		32 µg/mL (≈ 22.8 µM)	16 µg/mL (≈ 11.4 µM)	32 µg/mL (≈ 22.8 µM)	520
N=C(N)NCCC[C@@H]1NC(=O)[C@@H](CCCNC(=N)N)NC(=O)[C@H](Cc2c[nH]c3ccccc23)NC(=O)[C@@H](Cc2c[nH]c3ccccc23)NC(=O)[C@H](Cc2c[nH]c3ccccc23)NC(=O)[C@@H](Cc2c[nH]c3ccccc23)NC(=O)[C@H](CCCNC(=N)N)NC(=O)[C@@H](CCCNC(=N)N)NC1=O [IFX-034, c[arg-Arg-arg-Arg-trp-Trp-trp-Trp]] (cyclo(R[dR]R[dW]W[dW]W[dR]))	25 µg/mL (≈ 18.3 µM)		6.2 µg/mL (≈ 4.53 µM)	6.2 µg/mL (≈ 4.53 µM)	12.5 µg/mL (≈ 9.13 µM)	320
NCCCC[C@@H]1NC(=O)[C@H](CCCCN)NC(=O)[C@H](CCCCN)NC(=O)[C@H](C(c2ccccc2)c2ccccc2)NC(=O)[C@H](C(c2ccccc2)c2ccccc2)NC(=O)[C@H](C(c2ccccc2)c2ccccc2)NC(=O)[C@H](CCCCN)NC(=O)[C@H](CCCCN)NC1=O [IFX-015, c[Lys-Lys-Lys-Lys-Lys-Dip-Dip-Dip]] (cyclo([Dip][Dip][Dip]KKKKK))	>100 µg/mL		12.5 µg/mL (≈ 9.54 µM)	6.2 µg/mL (≈ 4.73 µM)	50 µg/mL (≈ 38.1 µM)	480
N=C(N)NCCC[C@H](NC(=O)[C@H](CCCNC(=N)N)NC(=O)[C@H](CCCNC(=N)N)NC(=O)[C@@H](N)CCCNC(=N)N)C(=O)N[C@@H](Cc1ccc2ccccc2c1)C(=O)N[C@@H](Cc1ccc2ccccc2c1)C(=O)O [IFX-011-1, NH2-Arg-Arg-Arg-Arg-NaI-NaI-OH] (H-RRRR[2Nal][2Nal]-OH)	>100 µg/mL		6.2 µg/mL (≈ 5.98 µM)	6.2 µg/mL (≈ 5.98 µM)	50 µg/mL (≈ 48.2 µM)	310

Further lines, results first:

MIC P. aeruginosa ATCC 27883 [1]	HC50 at 0.5 h [2]	MIC MRSA ATCC BAA-1556 [3]	MIC S. aureus ATCC 29213 [4]	MIC E. coli ATCC 25922 [5]	HC50 [6]	SMILES
12.5 µg/mL (≈ 10.3 µM)	100 µg/mL					N=C(N)NCCC[C@@H]1NC(=O)[C@H](CCCNC(=N)N)NC(=O)[C@H](Cc2ccc3ccccc3c2)NC(=O)[C@H](Cc2ccc3ccccc3c2)NC(=O)[C@@H](Cc2ccc3ccccc3c2)NC(=O)[C@H](CCCNC(=N)N)NC(=O)[C@H](CCCNC(=N)N)NC1=O [IFX-076, c[Arg-Arg-Arg-Arg-naI-NaI-NaI]] (cyclo(RRRR[d2Nal][2Nal][2Nal]))
12.5 µg/mL (≈ 10.3 µM)	100 µg/mL					N=C(N)NCCC[C@@H]1NC(=O)[C@H](Cc2ccc3ccccc3c2)NC(=O)[C@H](Cc2ccc3ccccc3c2)NC(=O)[C@H](Cc2ccc3ccccc3c2)NC(=O)[C@@H](CCCNC(=N)N)NC(=O)[C@H](CCCNC(=N)N)NC(=O)[C@H](CCCNC(=N)N)NC1=O [IFX-077, c[Arg-Arg-Arg-arg-NaI-NaI-NaI]] (cyclo(RRR[dR][2Nal][2Nal][2Nal]))
12.5 µg/mL (≈ 10.3 µM)	150 µg/mL					N=C(N)NCCC[C@@H]1NC(=O)[C@@H](CCCNC(=N)N)NC(=O)[C@H](CCCNC(=N)N)NC(=O)[C@@H](CCCNC(=N)N)NC(=O)[C@@H](Cc2ccc3ccccc3c2)NC(=O)[C@@H](Cc2ccc3ccccc3c2)NC(=O)[C@@H](Cc2ccc3ccccc3c2)NC1=O [IFX-082, c[arg-Arg-arg-Arg-naI-naI-naI]] (cyclo([dR]R[dR]R[d2Nal][d2Nal][d2Nal]))
12.5 µg/mL (≈ 10.3 µM)	145 µg/mL					N=C(N)NCCC[C@@H]1NC(=O)[C@H](Cc2ccc3ccccc3c2)NC(=O)[C@@H](Cc2ccc3ccccc3c2)NC(=O)[C@H](Cc2ccc3ccccc3c2)NC(=O)[C@@H](CCCNC(=N)N)NC(=O)[C@H](CCCNC(=N)N)NC(=O)[C@@H](CCCNC(=N)N)NC1=O [IFX-085, c[Arg-arg-Arg-arg-NaI-naI-NaI]] (cyclo(R[dR]R[dR][2Nal][d2Nal][2Nal]))
12.5 µg/mL (≈ 10.3 µM)	200 µg/mL					N=C(N)NCCC[C@@H]1NC(=O)[C@H](CCCNC(=N)N)NC(=O)[C@H](CCCNC(=N)N)NC(=O)[C@H](CCCNC(=N)N)NC(=O)[C@@H](Cc2ccc3ccccc3c2)NC(=O)[C@H](Cc2ccc3ccccc3c2)NC(=O)[C@H](Cc2ccc3ccccc3c2)NC1=O [IFX-074, c[Arg-Arg-Arg-Arg-NaI-NaI-naI]] (cyclo(RRRR[2Nal][2Nal][d2Nal]))
12.5 µg/mL (≈ 10.3 µM)	100 µg/mL					N=C(N)NCCC[C@@H]1NC(=O)[C@H](CCCNC(=N)N)NC(=O)[C@H](CCCNC(=N)N)NC(=O)[C@H](Cc2ccc3ccccc3c2)NC(=O)[C@@H](Cc2ccc3ccccc3c2)NC(=O)[C@H](Cc2ccc3ccccc3c2)NC(=O)[C@H](CCCNC(=N)N)NC1=O [IFX-075, c[Arg-Arg-Arg-Arg-NaI-naI-NaI]] (cyclo(RRRR[2Nal][d2Nal][2Nal]))

Reference: US20220289794A1, “SYNTHETIC ANTIMICROBIAL PEPTIDES” (priority 2019, published 2022)
